Measured values taken from patent US9994590B2, “Substituted [1,2,4]triazolo[1,5-a]pyrazines as phosphodiesterase inhibitors” (Sunovion Pharamaceuticals Inc., priority 2012, dated 2018).

Molecular target: recombinant human PDE-10 enzyme (human PDE-10A) (Homo sapiens (Human), UniProt Q9Y233)
Assay: human PDE-10 inhibition assay (Molecular Devices IMAP PDE Fluorescence Polarization, enzyme assay IC50)
Format: biochemical
Details: Fluorescein-labeled cAMP/cGMP substrate, 40-minute incubation at 37° C.
Description: In one embodiment, the compounds provided herein were assayed for their ability to inhibit human PDE-10A. In one embodiment, the activities of the compounds were determined using the Molecular Devices IMAP PDE Fluorescence Polarization assay using recombinant human PDE-10 enzyme expressed in a baculoviral system. Briefly, 10 μL of a compound (0.2 nM-20 μM) was added to either a 96-well half area black plate or a 384-well black plate along with 10 μL of Fluorescein-labeled cAMP/cGMP substrate as per manufacturer's instructions and 10 μL of PDE enzyme (activity 0.1 U). Following a 40-minute incubation at 37° C., 60 μL of IMAP binding reagent was added. The plate was then read on a Perkin Elmer Victor (480-535 nm). The data was analyzed using Prism Software (GraphPad Inc, San Diego, Calif.).

recombinant human PDE-10 enzyme (human PDE-10A), sequence (Q9Y233 whole entry): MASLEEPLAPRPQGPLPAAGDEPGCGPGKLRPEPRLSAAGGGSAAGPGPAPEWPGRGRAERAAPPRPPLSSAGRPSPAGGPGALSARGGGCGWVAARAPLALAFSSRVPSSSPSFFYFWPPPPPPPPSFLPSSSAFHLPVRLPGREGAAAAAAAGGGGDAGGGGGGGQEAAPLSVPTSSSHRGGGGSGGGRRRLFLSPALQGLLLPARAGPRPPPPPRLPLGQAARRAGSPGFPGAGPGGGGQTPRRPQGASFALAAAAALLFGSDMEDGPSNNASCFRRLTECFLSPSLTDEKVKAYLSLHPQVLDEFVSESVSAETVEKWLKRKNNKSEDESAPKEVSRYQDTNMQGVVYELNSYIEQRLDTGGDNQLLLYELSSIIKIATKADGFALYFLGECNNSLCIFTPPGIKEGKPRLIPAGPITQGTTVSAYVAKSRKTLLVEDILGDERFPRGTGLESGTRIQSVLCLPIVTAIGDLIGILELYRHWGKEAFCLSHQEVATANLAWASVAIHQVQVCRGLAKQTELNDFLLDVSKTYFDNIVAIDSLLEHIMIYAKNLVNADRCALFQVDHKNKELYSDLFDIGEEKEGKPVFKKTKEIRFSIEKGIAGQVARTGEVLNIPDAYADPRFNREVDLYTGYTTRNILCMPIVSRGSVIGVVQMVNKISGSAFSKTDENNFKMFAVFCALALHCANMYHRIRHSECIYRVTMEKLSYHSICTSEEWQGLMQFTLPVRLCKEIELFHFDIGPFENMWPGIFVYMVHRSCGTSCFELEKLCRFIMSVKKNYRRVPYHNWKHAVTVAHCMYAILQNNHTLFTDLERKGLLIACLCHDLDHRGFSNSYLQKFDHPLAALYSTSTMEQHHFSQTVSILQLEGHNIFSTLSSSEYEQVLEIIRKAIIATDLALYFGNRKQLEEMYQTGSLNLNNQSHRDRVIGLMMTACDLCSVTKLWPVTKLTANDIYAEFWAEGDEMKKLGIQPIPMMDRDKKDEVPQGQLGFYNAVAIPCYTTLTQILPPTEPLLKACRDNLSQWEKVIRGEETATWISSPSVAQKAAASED

Row | IC50 [nM] | Compound
1 | 100 to 500 | Clc1cccn2cc(C3CCC3c3cn4cccc(Cl)c4n3)nc12 (stereo not drawn) [Compound 23, 1,2-Bis(8-chloroimidazo[1,2-a]pyridin-2-yl)cyclobutane]
2 | > 500 | COc1cccn2c(C)c(C3CCC3c3nc4c(C)ncc(C)n4n3)nc12 (racemic) [Compound 42, (±)-2-(2-(8-methoxy-3-methylimidazo[1,2-a]pyridin-2-yl)cyclobutyl)-5,8-dimethyl-[1,2,4]triazolo[1,5-a]pyrazine]
3 | 10 to 100 | CCOc1cccn2c(C)c(C3CC3c3nc4c(C)ncc(C)n4n3)nc12 (racemic) [Compound 32, (±)-2-(2-(8-ethoxy-3-methylimidazo[1,2-a]pyridin-2-yl)cyclopropyl)-5,8-dimethyl-[1,2,4]triazolo[1,5-a]pyrazine]
4 | 10 to 100 | COc1cc(C)cn2c(F)c(C3CC3c3nc4c(C)ncc(C)n4n3)nc12 (racemic) [Compound 44, (±)-2-(2-(3-fluoro-8-methoxy-6-methylimidazo[1,2-a]pyridin-2-yl)cyclopropyl)-5,8-dimethyl-[1,2,4]triazolo[1,5-a]pyrazine]
5 | ≤ 10 | Cc1ncc(C)n2nc(C3CC3c3nc4c5ccccc5ccn4c3C)nc12 (stereo not drawn) [Compound 3]
6 | > 500 | Cc1ccn2cc(C3CC3c3nc4c(C)ncc(C)n4n3)nc2c1 (stereo not drawn) [Compound 12, 5,8-Dimethyl-2-(2-(7-methylimidazo[1,2-a]pyridin-2-yl)cyclopropyl)-[1,2,4]triazolo[1,5-a]pyrazine]
7 | 100 to 500 | COc1cccc2[nH]c(C3CC3c3nc4c(C)ncc(C)n4n3)nc12 (racemic) [Compound 47, (±)-2-(2-(4-methoxy-1H-benzo[d]imidazol-2-yl)cyclopropyl)-5,8-dimethyl-[1,2,4]triazolo[1,5-a]pyrazine]
8 | > 500 | Cn1c(C2CCC2c2nc3c4cccnc4ccc3n2C)nc2c3cccnc3ccc21 (stereo not drawn) [Compound 25, 1,2-Bis(3-methyl-3H-imidazo[4,5-f]quinolin-2-yl)cyclobutane]
9 | 100 to 500 | Cc1ccn2c(C)c(C3CC3c3nc4c(C)ncc(C)n4n3)nc2c1 (stereo not drawn) [Compound 6, 2-(2-(3,7-Dimethylimidazo[1,2-a]pyridin-2-yl)cyclopropyl)-5,8-dimethyl-[1,2,4]triazolo[1,5-a]pyrazine]
10 | 10 to 100 | COc1cccn2c(C)c(C3CC3c3nc4c(C)ncc(C)n4n3)nc12 (stereo not drawn) [Compound 15]
11 | > 500 | Cc1cccn2cc(C3CC3c3cn4cccc(C)c4n3)nc12 (stereo not drawn) [Compound 8, 1,2-Bis(8-methylimidazo[1,2-a]pyridin-2-yl)cyclopropane]
12 | > 500 | Fc1ccn2cc(C3CCC3c3cn4cccc(Cl)c4n3)nc2c1 (stereo not drawn) [Compound 24, 8-Chloro-2-(2-(7-fluoroimidazo[1,2-a]pyridin-2-yl)cyclobutyl)imidazo[1,2-a]pyridine]
13 | > 500 | Cc1ccn2c(C)c(C3CC3c3cn4ccc(F)cc4n3)nc2c1 (stereo not drawn) [Compound 7, 2-(2-(7-Fluoroimidazo[1,2-a]pyridin-2-yl)cyclopropyl)-3,7-dimethylimidazo[1,2-a]pyridine]
14 | 100 to 500 | Cc1ncc(C)n2nc([C@H]3C[C@@H]3c3nc4c5cccnc5ccn4c3C)nc12 (single isomer, unassigned) [Compound 26]
15 | ≤ 10 | Cc1ncc(C)n2nc([C@@H]3C[C@H]3c3nc4c5cccnc5ccc4n3C)nc12 [Compound 29]
16 | > 500 | Fc1ccn2cc(C3CC3c3cn4ccc(F)cc4n3)nc2c1 (stereo not drawn) [Compound 9]
17 | > 500 | Cc1ncc(C)n2nc(C3CCC3c3nc4c5cccnc5ccc4n3C)nc12 (racemic) [Compound 40, (±)-2-(2-(5,8-dimethyl-[1,2,4]triazolo[1,5-a]pyrazin-2-yl)cyclobutyl)-3-methyl-3H-imidazo[4,5-f]quinoline]
18 | > 500 | Cc1ncc(C)n2cc(C3CC3c3nc4c(C)ncc(C)n4n3)nc12 (racemic) [Compound 45, (±)-2-(2-(5,8-dimethylimidazo[1,2-a]pyrazin-2-yl)cyclopropyl)-5,8-dimethyl-[1,2,4]triazolo[1,5-a]pyrazine]
19 | 10 to 100 | COc1cc(OC)c2nc(C3CC3c3nc4c(C)ncc(C)n4n3)c(C)n2c1 (racemic) [Compound 37, (±)-2-(2-(6,8-dimethoxy-3-methylimidazo[1,2-a]pyridin-2-yl)cyclopropyl)-5,8-dimethyl-[1,2,4]triazolo[1,5-a]pyrazine]
20 | 100 to 500 | Cc1ncc(C)n2nc(C3CCC3c3cn4ccc5c(c4n3)OCCO5)nc12 (racemic) [Compound 38, (±)-9-(2-(5,8-dimethyl-[1,2,4]triazolo[1,5-a]pyrazin-2-yl)cyclobutyl)-2,3-dihydro-[1,4]dioxino[2,3-c]imidazo[1,2-a]pyridine]
21 | 10 to 100 | Cc1ncc(C)n2nc(C3CC3c3nc4c5c(ccn4c3F)OCCO5)nc12 (racemic) [Compound 48, (±)-9-(2-(5,8-dimethyl-[1,2,4]triazolo[1,5-a]pyrazin-2-yl)cyclopropyl)-8-fluoro-2,3-dihydro-[1,4]dioxino[2,3-c]imidazo[1,2-a]pyridine]

Row | IC50 [nM] | Compound
22 | 10 to 100 | COc1cccn2c(F)c([C@@H]3C[C@H]3c3nc4c(C)ncc(C)n4n3)nc12 (single isomer, unassigned) [Compound 57, 2-(2-(3-fluoro-8-methoxyimidazo[1,2-a]pyridin-2-yl)cyclopropyl)-5,8-dimethyl-[1,2,4]triazolo[1,5-a]pyrazine]
23 | 10 to 100 | Cc1ncc(C)n2nc(C3CC3c3nc4c(C5CC5)cccn4c3C)nc12 (stereo not drawn) [Compound 5, 2-(2-(8-Cyclopropyl-3-methylimidazo[1,2-a]pyridin-2-yl)cyclopropyl)-5,8-dimethyl-[1,2,4]triazolo[1,5-a]pyrazine]
24 | > 500 | COc1ccn2c(C)c(C3CCC3c3nc4c(C)ncc(C)n4n3)nc2c1 (racemic) [Compound 43, (±)-2-(2-(7-methoxy-3-methylimidazo[1,2-a]pyridin-2-yl)cyclobutyl)-5,8-dimethyl-[1,2,4]triazolo[1,5-a]pyrazine]
25 | 100 to 500 | Cc1ncc(C)n2nc(C3CC3c3nc4c(OC(F)F)cccn4c3C)nc12 (racemic) [Compound 31, (±)-2-(2-(8-(difluoromethoxy)-3-methylimidazo[1,2-a]pyridin-2-yl)cyclopropyl)-5,8-dimethyl-[1,2,4]triazolo[1,5-a]pyrazine]
26 | 100 to 500 | Cn1c(C2CC2c2ccc3ccccc3n2)nc2c3cccnc3ccc21 (stereo not drawn) [Compound 20, 3-Methyl-2-(2-(quinolin-2-yl)cyclopropyl)-3H-imidazo[4,5-f]quinoline]
27 | > 500 | Clc1cccn2cc(C3CC3c3cn4cccc(Cl)c4n3)nc12 (stereo not drawn) [Compound 11]
28 | 10 to 100 | CCOc1cccn2cc(C3CC3c3nc4c(C)ncc(C)n4n3)nc12 (stereo not drawn) [Compound 17]
29 | 10 to 100 | Cc1ncc(C)n2nc(C3CC3c3nc4c5c(ccn4c3C)OCCO5)nc12 (racemic) [Compound 35, (±)-9-(2-(5,8-dimethyl-[1,2,4]triazolo[1,5-a]pyrazin-2-yl)cyclopropyl)-8-methyl-2,3-dihydro-[1,4]dioxino[2,3-c]imidazo[1,2-a]pyridine]
30 | 100 to 500 | Cc1ncc(C)n2nc([C@H]3C[C@@H]3c3nc4c5cccnc5ccc4n3C)nc12 [Compound 28]
31 | 10 to 100 | COc1cccn2c(F)c(C3CC3c3nc4c(C)ncc(C)n4n3)nc12 (racemic) [Compound 55, (±)-2-(2-(3-fluoro-8-methoxyimidazo[1,2-a]pyridin-2-yl)cyclopropyl)-5,8-dimethyl-[1,2,4]triazolo[1,5-a]pyrazine]
32 | 10 to 100 | Cc1ncc(C)n2nc(C3CC3c3nc4c5cccc(F)c5ccn4c3C)nc12 (racemic) [Compound 30, (±)-2-(2-(5,8-dimethyl-[1,2,4]triazolo[1,5-a]pyrazin-2-yl)cyclopropyl)-7-fluoro-3-methylimidazo[2,1-a]isoquinoline]
33 | > 500 | Cc1cc2nc(C3CC3c3nc4c(C)ncc(C)n4n3)cn2cc1F (stereo not drawn) [Compound 18]
34 | > 500 | Cc1ncc(C)n2nc(C3CC3c3nc4cc(F)ccn4c3C)nc12 (stereo not drawn) [Compound 4]
35 | 100 to 500 | Cc1cc2nc(C3CC3c3nc4c(C)ncc(C)n4n3)c(C)n2cc1F (racemic) [Compound 33, (±)-2-(2-(6-fluoro-3,7-dimethylimidazo[1,2-a]pyridin-2-yl)cyclopropyl)-5,8-dimethyl-[1,2,4]triazolo[1,5-a]pyrazine]
36 | 100 to 500 | COc1cccc2c1nc(C1CC1c1nc3c(C)ncc(C)n3n1)n2C (racemic) [Compound 46, (±)-2-(2-(4-methoxy-1-methyl-1H-benzo [d]imidazol-2-yl)cyclopropyl)-5,8-dimethyl-[1,2,4]triazolo[1,5-a]pyrazine]
37 | 100 to 500 | COc1cccn2cc(C3CC3c3nc4c(C)ncc(C)n4n3)nc12 (racemic) [Compound 59, (±)-2-(2-(8-methoxyimidazo[1,2-a]pyridin-2-yl)cyclopropyl)-5,8-dimethyl-[1,2,4]triazolo[1,5-a]pyrazine]
38 | 10 to 100 | Cc1ncc(C)n2nc(C3CC3c3nc(-c4ccccc4)cn3C)nc12 (stereo not drawn) [Compound 19, 5,8-Dimethyl-2-(2-(1-methyl-4-phenyl-1H-imidazol-2-yl)cyclopropyl)-[1,2,4]triazolo[1,5-a]pyrazine]
39 | > 500 | COc1ccn2cc(C3CC3c3nc4c(C)ncc(C)n4n3)nc2c1 (stereo not drawn) [Compound 16]
40 | > 500 | CCOc1ccn2c(C)c(C3CC3c3nc4c(C)ncc(C)n4n3)nc2c1 (stereo not drawn) [Compound 14]
41 | 10 to 100 | COc1cc(C)cn2c(C)c(C3CC3c3nc4c(C)ncc(C)n4n3)nc12 (racemic) [Compound 36, (±)-2-(2-(8-methoxy-3,6-dimethylimidazo[1,2-a]pyridin-2-yl)cyclopropyl)-5,8-dimethyl-[1,2,4]triazolo[1,5-a]pyrazine]
42 | 100 to 500 | COc1ccn2c(C)c(C3CC3c3nc4c(C)ncc(C)n4n3)nc2c1 (stereo not drawn) [Compound 13]
